The values that follow are results of earlier work, collected in patent US20090202609A1, “MEDICAL DEVICE WITH COATING COMPOSITION” (priority 2008, published 2009).

The test system of data set [1] is bacteria. To be noted: effective systemic concentration.
For data set [2] the following is noted: systemic.

As for `NC[C@H]1O[C@H](O[C@H]2[C@H](O)[C@@H](O[C@H]3O[C@H](CO)[C@@H](O)[C@H](N)[C@H]3O)[C@H](N)C[C@@H]2N)[C@H](N)C[C@@H]1O` [tobramycin], the “effective concentration to actively control bacteria” value in data set [1] was no more than 4 µg/mL. Besides, the system-wide toxic concentration result in data set [2] is “about 400 mcg/ml”.
